According to patent US20250255867A1 (Kadmon Corporation, LLC, priority 2022, published 2025):

Settings: Cohort 3 400 mg QD

CC(C)NC(=O)COc1cccc(-c2nc(Nc3ccc4[nH]ncc4c3)c3ccccc3n2)c1 [Belumosudil, 2-{3-[4-(1H-indazol-5-ylamino)-2-quinazolinyl]phenoxy}-N-(propan-2-yl) acetamide]
Glaucoma: Affected/At Risk (%): (0%) | Glucose urine present: # Events: 3 | Glucose urine present: Affected/At Risk: 1/21 | Glucose urine present: Affected/At Risk (%): (4.76%) | Graft versus host disease in gastrointestinal tract: # Events: 0 | Graft versus host disease in gastrointestinal tract: Affected/At Risk: 0/21 | Graft versus host disease in gastrointestinal tract: Affected/At Risk (%): (0%) | Gynaecomastia: # Events: 0 | Gynaecomastia: Affected/At Risk: 0/21 | Gynaecomastia: Affected/At Risk (%): (0%) | Haematuria: # Events: 2 | Haematuria: Affected/At Risk: 1/21 | Haematuria: Affected/At Risk (%): (4.76%) | Hair growth abnormal: # Events: 0 | Hair growth abnormal: Affected/At Risk: 0/21 | Hair growth abnormal: Affected/At Risk (%): (0%) | Headache: # Events: 8 | Headache: Affected/At Risk: 6/21 | Headache: Affected/At Risk (%): (28.57%) | Hodgkin's disease recurrent: # Events: 0 | Hodgkin's disease recurrent: Affected/At Risk: 0/21 | Hodgkin's disease recurrent: Affected/At Risk (%): (0%) | Hordeolum: # Events: 1 | Hordeolum: Affected/At Risk: 1/21 | Hordeolum: Affected/At Risk (%): (4.76%) | Hot flush: # Events: 0 | Hot flush: Affected/At Risk: 0/21 | Hot flush: Affected/At Risk (%): (0%) | Hyperglycemia: # Events: 8 | Hyperglycemia: Affected/At Risk: 3/21 | Hyperglycemia: Affected/At Risk (%): (14.29%) | Hyperhidrosis: # Events: 1 | Hyperhidrosis: Affected/At Risk: 1/21 | Hyperhidrosis: Affected/At Risk (%): (4.76%) | Hyperkalaemia: # Events: 4 | Hyperkalaemia: Affected/At Risk: 3/21 | Hyperkalaemia: Affected/At Risk (%): (14.29%) | Hypertension: # Events: 6 | Hypertension: Affected/At Risk: 4/21 | Hypertension: Affected/At Risk (%): (19.05%) | Hyperthyroidism: # Events: 1 | Hyperthyroidism: Affected/At Risk: 1/21 | Hyperthyroidism: Affected/At Risk (%): (4.76%) | Hypertriglyceridaemia: # Events: 0 | Hypertriglyceridaemia: Affected/At Risk: 0/21 | Hypertriglyceridaemia: Affected/At Risk (%): (0%) | Hyperuricaemia: # Events: 5 | Hyperuricaemia: Affected/At Risk: 3/21 | Hyperuricaemia: Affected/At Risk (%): (14.29%) | Hypoaesthesia: # Events: 1 | Hypoaesthesia: Affected/At Risk: 1/21 | Hypoaesthesia: Affected/At Risk (%): (4.76%) | Hypocalcaemia: # Events: 1 | Hypocalcaemia: Affected/At Risk: 1/21 | Hypocalcaemia: Affected/At Risk (%): (4.76%) | Hypogonadism: # Events: 0 | Hypogonadism: Affected/At Risk: 0/21 | Hypogonadism: Affected/At Risk (%): (0%) | Hypokalaemia: # Events: 0 | Hypokalaemia: Affected/At Risk: 0/21 | Hypokalaemia: Affected/At Risk (%): (0%) | Hypomagnesaemia: # Events: 1 | Hypomagnesaemia: Affected/At Risk: 1/21 | Hypomagnesaemia: Affected/At Risk (%): (4.76%) | Hyponatraemia: # Events: 2 | Hyponatraemia: Affected/At Risk: 2/21 | Hyponatraemia: Affected/At Risk (%): (9.52%) | Hypophosphataemia: # Events: 1 | Hypophosphataemia: Affected/At Risk: 1/21 | Hypophosphataemia: Affected/At Risk (%): (4.76%) | Hypothermia: # Events: 0 | Hypothermia: Affected/At Risk: 0/21 | Hypothermia: Affected/At Risk (%): (0%) | Hypothyroidism: # Events: 4 | Hypothyroidism: Affected/At Risk: 3/21 | Hypothyroidism: Affected/At Risk (%): (14.29%) | Hypoxia: # Events: 3 | Hypoxia: Affected/At Risk: 3/21 | Hypoxia: Affected/At Risk (%): (14.29%) | Impaired healing: # Events: 0 | Impaired healing: Affected/At Risk: 0/21 | Impaired healing: Affected/At Risk (%): (0%) | Influenza like illness: # Events: 0 | Influenza like illness: Affected/At Risk: 0/21 | Influenza like illness: Affected/At Risk (%): (0%) | Influenza: # Events: 2 | Influenza: Affected/At Risk: 2/21 | Influenza: Affected/At Risk (%): (9.52%) | Insomnia: # Events: 3 | Insomnia: Affected/At Risk: 3/21 | Insomnia: Affected/At Risk (%): (14.29%) | Irritability: # Events: 0 | Irritability: Affected/At Risk: 0/21 | Irritability: Affected/At Risk (%): (0%) | Joint range of motion decreased: # Events: 1 | Joint range of motion decreased: Affected/At Risk: 1/21 | Joint range of motion decreased: Affected/At Risk (%): (4.76%) | Lacrimation increased: # Events: 0 | Lacrimation increased: Affected/At Risk: 0/21 | Lacrimation increased: Affected/At Risk (%): (0%) | Leukaemia recurrent: # Events: 0 | Leukaemia recurrent: Affected/At Risk: 0/21 | Leukaemia recurrent: Affected/At Risk (%): (0%) | Leukocytosis: # Events: 1 | Leukocytosis: Affected/At Risk: 1/21 | Leukocytosis: Affected/At Risk (%): (4.76%) | Ligament sprain: # Events: 0 | Ligament sprain: Affected/At Risk: 0/21 | Ligament sprain: Affected/At Risk (%): (0%) | Limb injury: # Events: 1 | Limb injury: Affected/At Risk: 1/21 | Limb injury: Affected/At Risk (%): (4.76%) | Macular degeneration: # Events: 0 | Macular degeneration: Affected/At Risk: 0/21 | Macular degeneration: Affected/At Risk (%): (0%) | Migraine: # Events: 0 | Migraine: Affected/At Risk: 0/21 | Migraine: Affected/At Risk (%): (0%) | Muscle spasms: # Events: 6 | Muscle spasms: Affected/At Risk: 6/21 | Muscle spasms: Affected/At Risk (%): (28.57%) | Muscle spasticity: # Events: 1 | Muscle spasticity: Affected/At Risk: 1/21 | Muscle spasticity: Affected/At Risk (%): (4.76%) | Muscular weakness: # Events: 2 | Muscular weakness: Affected/At Risk: 2/21 | Muscular weakness: Affected/At Risk (%): (9.52%) | Musculoskeletal chest pain: # Events: 1 | Musculoskeletal chest pain: Affected/At Risk: 1/21 | Musculoskeletal chest pain: Affected/At Risk (%): (4.76%) | Myalgia: # Events: 3 | Myalgia: Affected/At Risk: 3/21 | Myalgia: Affected/At Risk (%): (14.29%) | Nail disorder: # Events: 0 | Nail disorder: Affected/At Risk: 0/21 | Nail disorder: Affected/At Risk (%): (0%) | Nasal congestion: # Events: 1 | Nasal congestion: Affected/At Risk: 1/21 | Nasal congestion: Affected/At Risk (%): (4.76%) | Nausea: # Events: 12 | Nausea: Affected/At Risk: 9/21 | Nausea: Affected/At Risk (%): (42.86%) | Neck pain: # Events: 0 | Neck pain: Affected/At Risk: 0/21 | Neck pain: Affected/At Risk (%): (0%) | Nephrotic syndrome: # Events: 0 | Nephrotic syndrome: Affected/At Risk: 0/21 | Nephrotic syndrome: Affected/At Risk (%): (0%) | Neuropathy peripheral: # Events: 2 | Neuropathy peripheral: Affected/At Risk: 1/21 | Neuropathy peripheral: Affected/At Risk (%): (4.76%) | Neutrophil count decreased: # Events: 1 | Neutrophil count decreased: Affected/At Risk: 1/21 | Neutrophil count decreased: Affected/At Risk (%): (4.76%) | Nocturia: # Events: 0 | Nocturia: Affected/At Risk: 0/21 | Nocturia: Affected/At Risk (%): (0%) | Non-cardiac chest pain: # Events: 1 | Non-cardiac chest pain: Affected/At Risk: 1/21 | Non-cardiac chest pain: Affected/At Risk (%): (4.76%) | Obesity: # Events: 0 | Obesity: Affected/At Risk: 0/21 | Obesity: Affected/At Risk (%): (0%) | Oedema peripheral: # Events: 6 | Oedema peripheral: Affected/At Risk: 6/21 | Oedema peripheral: Affected/At Risk (%): (28.57%) | Oedema: # Events: 0 | Oedema: Affected/At Risk: 0/21 | Oedema: Affected/At Risk (%): (0%) | Oesophageal ulcer: # Events: 0 | Oesophageal ulcer: Affected/At Risk: 0/21 | Oesophageal ulcer: Affected/At Risk (%): (0%) | Oral candidiasis: # Events: 0 | Oral candidiasis: Affected/At Risk: 0/21 | Oral candidiasis: Affected/At Risk (%): (0%) | Oropharyngeal pain: # Events: 1 | Oropharyngeal pain: Affected/At Risk: 1/21 | Oropharyngeal pain: Affected/At Risk (%): (4.76%) | Orthopnoea: # Events: 0 | Orthopnoea: Affected/At Risk: 0/21 | Orthopnoea: Affected/At Risk (%): (0%) | Osteonecrosis: # Events: 0 | Osteonecrosis: Affected/At Risk: 0/21 | Osteonecrosis: Affected/At Risk (%): (0%) | Osteopenia: # Events: 0 | Osteopenia: Affected/At Risk: 0/21 | Osteopenia: Affected/At Risk (%): (0%) | Osteoporosis: # Events: 0 | Osteoporosis: Affected/At Risk: 0/21 | Osteoporosis: Affected/At Risk (%): (0%) | Overdose: # Events: 0 | Overdose: Affected/At Risk: 0/21 | Overdose: Affected/At Risk (%): (0%) | Pain in extremity: # Events: 5 | Pain in extremity: Affected/At Risk: 4/21 | Pain in extremity: Affected/At Risk (%): (19.05%) | Pain: # Events: 1 | Pain: Affected/At Risk: 1/21 | Pain: Affected/At Risk (%): (4.76%) | Palpitations: # Events: 1 | Palpitations: Affected/At Risk: 1/21 | Palpitations: Affected/At Risk (%): (4.76%) | Paraesthesia: # Events: 1 | Paraesthesia: Affected/At Risk: 1/21 | Paraesthesia: Affected/At Risk (%): (4.76%) | Participants with TEAE: 20 (95%) participants | Participants with TESAE: 13 (62%) participants | Pericardial effusion: # Events: 0 | Pericardial effusion: Affected/At Risk: 0/21 | Pericardial effusion: Affected/At Risk (%): (0%) | Peripheral coldness: # Events: 0 | Peripheral coldness: Affected/At Risk: 0/21 | Peripheral coldness: Affected/At Risk (%): (0%) | Peripheral sensory neuropathy: # Events: 0 | Peripheral sensory neuropathy: Affected/At Risk: 0/21 | Peripheral sensory neuropathy: Affected/At Risk (%): (0%) | Phlebitis: # Events: 0 | Phlebitis: Affected/At Risk: 0/21 | Phlebitis: Affected/At Risk (%): (0%) | Photophobia: # Events: 2 | Photophobia: Affected/At Risk: 2/21 | Photophobia: Affected/At Risk (%): (9.52%) | Platelet count decreased: # Events: 0 | Platelet count decreased: Affected/At Risk: 0/21 | Platelet count decreased: Affected/At Risk (%): (0%) | Pleural effusion: # Events: 1 | Pleural effusion: Affected/At Risk: 1/21 | Pleural effusion: Affected/At Risk (%): (4.76%) | Pneumonia respiratory syncytial viral: # Events: 0 | Pneumonia respiratory syncytial viral: Affected/At Risk: 0/21 | Pneumonia respiratory syncytial viral: Affected/At Risk (%): (0%) | Pneumonia: # Events: 0 | Pneumonia: Affected/At Risk: 0/21 | Pneumonia: Affected/At Risk (%): (0%) | Pollakiuria: # Events: 0 | Pollakiuria: Affected/At Risk: 0/21 | Pollakiuria: Affected/At Risk (%): (0%) | Presyncope: # Events: 0 | Presyncope: Affected/At Risk: 0/21 | Presyncope: Affected/At Risk (%): (0%) | Productive cough: # Events: 2 | Productive cough: Affected/At Risk: 1/21 | Productive cough: Affected/At Risk (%): (4.76%) | Proteinuria: # Events: 0 | Proteinuria: Affected/At Risk: 0/21 | Proteinuria: Affected/At Risk (%): (0%) | Pruritus: # Events: 0 | Pruritus: Affected/At Risk: 0/21 | Pruritus: Affected/At Risk (%): (0%) | Pseudomonas infection: # Events: 0 | Pseudomonas infection: Affected/At Risk: 0/21 | Pseudomonas infection: Affected/At Risk (%): (0%) | Pulmonary mass: # Events: 1 | Pulmonary mass: Affected/At Risk: 1/21 | Pulmonary mass: Affected/At Risk (%): (4.76%) | Pyrexia: # Events: 3 | Pyrexia: Affected/At Risk: 3/21 | Pyrexia: Affected/At Risk (%): (14.29%) | Rash erythematous: # Events: 0 | Rash erythematous: Affected/At Risk: 0/21 | Rash erythematous: Affected/At Risk (%): (0%) | Rash maculo-papular: # Events: 0 | Rash maculo-papular: Affected/At Risk: 0/21 | Rash maculo-papular: Affected/At Risk (%): (0%) | Rash pustular: # Events: 0 | Rash pustular: Affected/At Risk: 0/21 | Rash pustular: Affected/At Risk (%): (0%) | Rash: # Events: 1 | Rash: Affected/At Risk: 1/21 | Rash: Affected/At Risk (%): (4.76%) | Red blood cells urine positive: # Events: 0 | Red blood cells urine positive: Affected/At Risk: 0/21 | Red blood cells urine positive: Affected/At Risk (%): (0%) | Renal failure: # Events: 0
